Measurements published in US11572475B2, “Carbocyanines for G-quadruplex DNA stabilization and telomerase inhibition” (GEORGIA STATE UNIVERSITY RESEARCH FOUNDATION, INC., priority 2011, dated 2023).

Experiments:
[1] = tested on: Human Telomere (HT) quadruplex DNA; assay: Thermal melting UV-Vis absorbance, quadruplex DNA; type: binding; settings: for Change in Thermal Melting Points, Human Telomere (HT), 1:1: ratio 1:1 (R); for Change in Thermal Melting Points, Human Telomere (HT), 2:1: ratio 2:1 (R); for Change in Thermal Melting Points, Human Telomere (HT), 4:1: ratio 4:1 (R); for Change in Thermal Melting Points, Human Telomere (HT), 6:1: ratio 6:1 (R); for Selectivity for quadruplex over duplex DNA by thermal melting: quadruplex vs duplex
Protocol: (§1) Three DNA sequences were used: Human Telomere (HTelo), c-myc, and Duplex (Integrated DNA Technologies, San Diego, Calif.). The sequences are shown below:
The concentration of each DNA sample mixed with MilliQ water was determined by UV-Vis at 260 nm using their extinction coefficients. Quadruplexes from Human Telomere (Tel22) and c-myc were prepared by heating the corresponding oligonucleotides at 90° C. for 5 minutes in a 10 mM Tris/50 mM KCl buffer at pH 7.5 and then cooling to room temperature (to favor the intramolecular folding).
(§2) The buffer used was 10 mM Tris base (Fischer Scientific, Fairlawn, N.J.), 50 mM Potassium Chloride (Fischer Scientific, Fairlawn, N.J.), with the pH adjusted to 7.5 with Hydrochloric Acid (Fischer Scientific, Fairlawn, N.J.).
(§3) DNA folding and unfolding (melting) can be measured using absorbance at a constant wavelength of 260 nm for duplex DNA and 295 nm for quadruplex DNA while the temperature is increased, for example from 25° C. to 95° C. At these wavelengths, the resulting curves decrease in absorbance for quadruplex and increase for duplex DNA. Buffer solution and presence of DNA-binding compounds alter the Tm melting temperature, or midpoint between fully folded and unfolded. An increase in melting temperature in the presence of DNA-binding compounds indicates a stabilizing effect of the compound on the DNA structure.
(§4) The selectivity of a given cyanine for quadruplex DNA can be evaluated using thermal melting. The number in parentheses next to the compound number corresponds to the compound number in Schemes 1 and 2.
(§5) Thermal melting studies were also performed on compounds T4 and T5 (Scheme 2) and ZK-14 and SP-2-36.

[2] = tested on: HeLa cells; assay: Trypan blue exclusion assay for cell viability, HeLa; type: cell-based; settings: for Hela cells killed: after 24 h
Protocol: (§6) To evaluate the cytotoxic properties of the cyanines described herein, trypan blue exclusion assay for cell viability was performed on 10 compounds at two different concentrations (5 μM and 20 μM). To test the cancer selectivity of the dyes, the results were compared in a cancer cell line, HeLa and a non-cancerous cell line, HDF. The loss of membrane integrity in dead and dying cells allows preferential uptake of labels like trypan blue. At the end of the incubation times with the dyes, HeLa or HDF cells were pelleted and washed with PBS. Well-suspended cells were mixed with equal volume of 0.4% trypan blue in 1×PBS, pH 7.4, followed by incubation at room temperature for 5 min. Cells were examined under the microscope and blue-stained cells were considered non-viable.

[3] = Trypan blue exclusion assay for cell viability, HDF; type: cell-based; settings: human, HDF cells (non-cancerous cell line); at the lower dose (5 μM); read-out: cell viability of normal cells (HDF)
Protocol: as §6

[4] = tested on: Duplex DNA; assay: Thermal melting UV-Vis absorbance, duplex DNA; type: binding; settings: for Change in Thermal Melting Points, Duplex, 1:1: ratio 1:1 (R); for Change in Thermal Melting Points, Duplex, 2:1: ratio 2:1 (R); for Change in Thermal Melting Points, Duplex, 4:1: ratio 4:1 (R); for Change in Thermal Melting Points, Duplex, 6:1: ratio 6:1 (R)
Protocol: as §1, §2, §3, §4, §5

[5] = tested on: Human Telomere (HT) quadruplex DNA; assay: Fluorescence titration with human telomere quadruplex; type: binding; settings: fluorescence intensity of bound ligand divided by that of free ligand
Source text: (§7) Atoms absorb energy and can emit it as heat (vibrational relaxation), fast light emission (fluorescence), or slow light emission (phosphorescence). Most of the cyanines described herein fluoresce in response to near-infrared wavelengths of light absorption. As the cyanines bind to DNA, π-π stacking and hydrogen bonding is altered leading to a change in fluorescence emission. This change can be measured in direct correlation to DNA binding. In some cases an approximate binding constant can be determined from measuring fluorescence enhancement as DNA is titrated into a solution of fluorescent compound. Fluorescent enhancement, or the maximum emission divided by the minimum emission of the titration (compound saturated with DNA divided by free compound) at a fixed wavelength is useful to compare DNA affinity between a family of compounds.
(§8) A UV-Vis absorbance scan is first conducted to acquire the excitation wavelength. A 5 μM solution of compound in 1 mL, of Tris/K+ buffer is scanned from 800 nm to 200 nm at a rate of 60 nm/min with a 5 nm slit width. All DNAs are diluted in Tris/K+ buffer. The human telomere and c-Myc DNA are annealed into a quadruplex motif by heating at 95° C. in the presence of potassium ions in a hot water bath for approximately five minutes, then allowing the solution to slowly come to room temperature. In a fluorescence cell, an emission scan of 1 μM of compound in 1 mL of Tris Buffer is taken (Varian Cary Eclipse, Walnut Creek, Calif.) with appropriate parameters based on the excitation wavelength, an excitation slit width of 5 nm, and an emission slit width of 5 nm. Then 0.05 μM of DNA is titrated into the solution and scanned under the same conditions after each addition. The solution is titrated to saturation, at which the change in fluorescence intensity is nearly zero.
(§9) Due to the highly stabilized parallel quadruplex structure of c-Myc, thermal melting could not be considered for this sequence. Thus, fluorescence can be used to measure binding affinity towards the two quadruplex structures. […] Fluorescence enhancement, or the fluorescence intensity of the bound ligand divided by that of the free ligand, was considered in evaluating binding.

[6] = tested on: c-Myc quadruplex DNA; assay: Fluorescence titration with c-Myc quadruplex; type: binding; settings: fluorescence intensity of bound ligand divided by that of free ligand
Source text: as §7, §8, §9

[7] = tested on: c-myc; assay: Isothermal calorimetry, c-myc; type: binding; settings: ITC, 25° C.
Protocol: (§10) DNA binding is dependent on enthalpy and entropy, components of the Gibbs free energy. Isothermal calorimetry measures the heat absorbed (endothermic binding) or released (exothermic binding) in binding at the μcalorie level. By examining the thermodynamics of different compounds, compounds can be analyzed to determine what factors favor quadruplex over duplex DNA binding. Enthalpy and binding constants are determined from measuring the heat change when compound is injected into a DNA solution, and the equations ΔG=ΔH−TΔS ΔG=−RT ln K are used to calculate entropy and Gibbs free energy.
(§11) Solutions of compound (0.2 mM) were injected 30 times into solutions of DNA (0.02 mM) on a VPC-ITC. All solutions were degasses at 25° C. for 15 minutes. TRIS/K^+ buffer was used in the reference cell. The injections were monitored at 25° C. with a reference power of 1 μcal/sec, an initial delay of 300 sec, and a stirring speed of 290. The first injection was 2 μL for 4 sec, with a spacing of 300 sec, and a filter period of 1 sec. The remaining 29 injections were 10 μL volume for a duration of 20 sec, with a spacing of 300 sec, and a filter period of 1 sec. The data was analyzed by VPViewer 2000 software.
(§12) Isothermal calorimetry (ITC) experiments were performed to test the SPR and fluorescence preference in binding c-myc over hTelo. […]

[8] = tested on: hTelo; assay: Isothermal calorimetry, hTelo; type: binding, human; settings: 25° C.
Protocol: as §10, §11, §12

[9] = tested on: A2T2; assay: Isothermal calorimetry, A2T2; type: binding; settings: 25° C.
Protocol: as §10, §11, §12

[10] = tested on: HDF cells; assay: Trypan blue exclusion assay for cell viability, HDF; type: cell-based; settings: at both concentrations; text also says lower concentrations (5-10 μM)
Protocol: as §6

CC1(C)C(/C=C/C(Br)=C/C=C2/N(CCC[N+](C)(C)C)c3ccc(I)cc3C2(C)C)=[N+](CCC[N+](C)(C)C)c2ccc(I)cc21 [A-161 (50)]
Change in Thermal Melting Points, Human Telomere (HT), 1:1 [1]: 4.1
Change in Thermal Melting Points, Human Telomere (HT), 2:1 [1]: 9.2
Change in Thermal Melting Points, Human Telomere (HT), 4:1 [1]: 16.2
Change in Thermal Melting Points, Human Telomere (HT), 6:1 [1]: 21.7
Hela cells killed ([2]; 5 μM): > 70%
Hela cells killed ([2]; 20 μM): > 70%
viability at 5 µM [3]: 100%

CC1(C)C(/C=C/C(Br)=C/C=C2\N(CCC[N+](C)(C)C)c3ccccc3C2(C)C)=[N+](CCC[N+](C)(C)C)c2ccccc21 [A-C8 (43)]
Selectivity for quadruplex over duplex DNA by thermal melting [1]: selectively bind to quadruplex DNA with little or no binding to duplex DNA
Change in Thermal Melting Points, Human Telomere (HT), 1:1 [1]: 2.0
Change in Thermal Melting Points, Human Telomere (HT), 2:1 [1]: 4.6
Change in Thermal Melting Points, Human Telomere (HT), 4:1 [1]: 11.6
Change in Thermal Melting Points, Human Telomere (HT), 6:1 [1]: 15.6
Change in Thermal Melting Points, Duplex, 1:1 [4]: 0.0
Change in Thermal Melting Points, Duplex, 2:1 [4]: −1.1
Change in Thermal Melting Points, Duplex, 4:1 [4]: 0.9
Change in Thermal Melting Points, Duplex, 6:1 [4]: −0.2
Fluorescence Enhancement, HT [5]: 1.66
Fluorescence Enhancement, c-Myc [6]: 3.46
K (M^−1), c-myc [7]: 802000 M⁻¹
K (M^−1), hTelo ([8]; ITC): 55700 M⁻¹
ITC binding to A2T2 [9]: No binding
cell death, HDFs [10]: ~35%

CC1(C)C(/C=C/C=C2/N(CCC[N+](C)(C)C)c3ccc(Br)cc3C2(C)C)=[N+](CCC[N+](C)(C)C)c2ccc(Br)cc21 [MH5 (28)]
Selectivity for quadruplex over duplex DNA by thermal melting [1]: selectively bind to quadruplex DNA with little or no binding to duplex DNA
Change in Thermal Melting Points, Human Telomere (HT), 1:1 [1]: 1
Change in Thermal Melting Points, Human Telomere (HT), 2:1 [1]: 5.2
Change in Thermal Melting Points, Human Telomere (HT), 4:1 [1]: 14.2
Change in Thermal Melting Points, Human Telomere (HT), 6:1 [1]: 23.7
Change in Thermal Melting Points, Duplex, 1:1 [4]: −0.1
Change in Thermal Melting Points, Duplex, 2:1 [4]: −1.0
Change in Thermal Melting Points, Duplex, 4:1 [4]: −1.0
Change in Thermal Melting Points, Duplex, 6:1 [4]: −0.1
Fluorescence Enhancement, HT [5]: 1.6
Fluorescence Enhancement, c-Myc [6]: 4.65
K (M^−1), c-myc [7]: 1.19e+06 M⁻¹
ITC binding to hTelo [8]: Weak binding- unable to fit
ITC binding to A2T2 [9]: No binding
Cytotoxicity to cancer cells ([2]; HeLa, both concentrations studied (5 μM and 20 μM)): highly cytotoxic to cancer cells
